Experimental data: patent US20190185417A1, “NOVEL ANTIBIOTICS” (priority 2016, published 2019)

How the values were obtained:
Experiment in all cases: MIC by broth microdilution
Format in all cases: cell-based
Conditions in all cases: Table 2, Example 2
[1] = test system: Haemophilus influenzae (ATCC 49247)
Description: (§1) The antibacterial potency of the test article(s) was measured using the in vitro broth microdilution assay under assay conditions described by the Clinical and Laboratory Standards Institute. […] The test substance was dissolved in 100% DMSO (unless stated below), suspended completely by sonication or vortexing, diluted by 2-fold serial titrations in the same vehicle, for a total of 11 test concentrations. A 4 μL aliquot of each dilution was added to 196 μL of broth medium seeded with the organism suspension in wells of a 96 well plate (bacterial count: 2−8×10^5 colony forming units/mL final). The final volume was 200 μL in each well and the final DMSO concentration was 2 percent. Following incubation, the test plates were visually examined and wells were scored for growth or complete growth inhibition to define the minimum inhibitory concentration. Each test substance was evaluated in duplicate and the results below are the duplicate test values. Vehicle-control and an active reference agent were used as blank and positive controls, respectively.

[2] = test system: Pseudomonas aeruginosa (ATCC 27853)
Description: as §1, with “DMSO,” for “DMSO (unless stated below),”, “incubation for 1 day at 36° C.,” for “incubation,”, “were reported as” for “below are”, “respectively. Microorganisms tested were Acinetobacter baumannii (ATCC 17978), Enterococcus faecalis (ATCC 29212), Enterococcus faecium VanA (ATCC 700221), Escherichia coli (ATCC 25922), Escherichia coli efflux defective DEL-tolC (JW5503), Heamophilus influenzae (ATCC 49247), Klebsiella pneumoniae (ATCC 43816), Pseudomonas aeruginosa (ATCC 27853), Pseudomonas aeruginosa MDR (NTUH-974), Staphylococcus aureus (ATCC 29213), Staphylococcus aureus MRSA (ATCC 33591) and Streptococcous pneumoniae (ATCC 46919). H. influenzae was grown in Haemophilus Test Medium and S. pneumoniae was grown in cation adjusted Muller-Hinton Broth II with 5% lysed horse blood. All other microorganisms were grown in cation adjusted Muller-Hinton Broth II.” for “respectively.”
as §1

[3] = test system: Escherichia coli (ATCC 25922)
Description: as §1, with “DMSO,” for “DMSO (unless stated below),”, “incubation for 1 day at 36° C.,” for “incubation,”, “were reported as” for “below are”, “respectively. Microorganisms tested were Acinetobacter baumannii (ATCC 17978), Enterococcus faecalis (ATCC 29212), Enterococcus faecium VanA (ATCC 700221), Escherichia coli (ATCC 25922), Escherichia coli efflux defective DEL-tolC (JW5503), Heamophilus influenzae (ATCC 49247), Klebsiella pneumoniae (ATCC 43816), Pseudomonas aeruginosa (ATCC 27853), Pseudomonas aeruginosa MDR (NTUH-974), Staphylococcus aureus (ATCC 29213), Staphylococcus aureus MRSA (ATCC 33591) and Streptococcous pneumoniae (ATCC 46919). H. influenzae was grown in Haemophilus Test Medium and S. pneumoniae was grown in cation adjusted Muller-Hinton Broth II with 5% lysed horse blood. All other microorganisms were grown in cation adjusted Muller-Hinton Broth II.” for “respectively.”
as §1

[4] = test system: Klebsiella pneumoniae (ATCC 43816)
Description: as §1, with “DMSO,” for “DMSO (unless stated below),”, “incubation for 1 day at 36° C.,” for “incubation,”, “were reported as” for “below are”, “respectively. Microorganisms tested were Acinetobacter baumannii (ATCC 17978), Enterococcus faecalis (ATCC 29212), Enterococcus faecium VanA (ATCC 700221), Escherichia coli (ATCC 25922), Escherichia coli efflux defective DEL-tolC (JW5503), Heamophilus influenzae (ATCC 49247), Klebsiella pneumoniae (ATCC 43816), Pseudomonas aeruginosa (ATCC 27853), Pseudomonas aeruginosa MDR (NTUH-974), Staphylococcus aureus (ATCC 29213), Staphylococcus aureus MRSA (ATCC 33591) and Streptococcous pneumoniae (ATCC 46919). H. influenzae was grown in Haemophilus Test Medium and S. pneumoniae was grown in cation adjusted Muller-Hinton Broth II with 5% lysed horse blood. All other microorganisms were grown in cation adjusted Muller-Hinton Broth II.” for “respectively.”
as §1

[5] = test system: Acinetobacter baumannii (ATCC 17978)
Description: as §1, with “DMSO,” for “DMSO (unless stated below),”, “incubation for 1 day at 36° C.,” for “incubation,”, “were reported as” for “below are”, “respectively. Microorganisms tested were Acinetobacter baumannii (ATCC 17978), Enterococcus faecalis (ATCC 29212), Enterococcus faecium VanA (ATCC 700221), Escherichia coli (ATCC 25922), Escherichia coli efflux defective DEL-tolC (JW5503), Heamophilus influenzae (ATCC 49247), Klebsiella pneumoniae (ATCC 43816), Pseudomonas aeruginosa (ATCC 27853), Pseudomonas aeruginosa MDR (NTUH-974), Staphylococcus aureus (ATCC 29213), Staphylococcus aureus MRSA (ATCC 33591) and Streptococcous pneumoniae (ATCC 46919). H. influenzae was grown in Haemophilus Test Medium and S. pneumoniae was grown in cation adjusted Muller-Hinton Broth II with 5% lysed horse blood. All other microorganisms were grown in cation adjusted Muller-Hinton Broth II.” for “respectively.”
as §1

[6] = test system: Pseudomonas aeruginosa, MDR (NTUH-974)
Description: as §1, with “DMSO,” for “DMSO (unless stated below),”, “incubation for 1 day at 36° C.,” for “incubation,”, “were reported as” for “below are”, “respectively. Microorganisms tested were Acinetobacter baumannii (ATCC 17978), Enterococcus faecalis (ATCC 29212), Enterococcus faecium VanA (ATCC 700221), Escherichia coli (ATCC 25922), Escherichia coli efflux defective DEL-tolC (JW5503), Heamophilus influenzae (ATCC 49247), Klebsiella pneumoniae (ATCC 43816), Pseudomonas aeruginosa (ATCC 27853), Pseudomonas aeruginosa MDR (NTUH-974), Staphylococcus aureus (ATCC 29213), Staphylococcus aureus MRSA (ATCC 33591) and Streptococcous pneumoniae (ATCC 46919). H. influenzae was grown in Haemophilus Test Medium and S. pneumoniae was grown in cation adjusted Muller-Hinton Broth II with 5% lysed horse blood. All other microorganisms were grown in cation adjusted Muller-Hinton Broth II.” for “respectively.”
as §1

[7] = test system: Escherichia coli, efflux defective DEL-tolC (JW5503)
Description: as §1, with “DMSO,” for “DMSO (unless stated below),”, “incubation for 1 day at 36° C.,” for “incubation,”, “were reported as” for “below are”, “respectively. Microorganisms tested were Acinetobacter baumannii (ATCC 17978), Enterococcus faecalis (ATCC 29212), Enterococcus faecium VanA (ATCC 700221), Escherichia coli (ATCC 25922), Escherichia coli efflux defective DEL-tolC (JW5503), Heamophilus influenzae (ATCC 49247), Klebsiella pneumoniae (ATCC 43816), Pseudomonas aeruginosa (ATCC 27853), Pseudomonas aeruginosa MDR (NTUH-974), Staphylococcus aureus (ATCC 29213), Staphylococcus aureus MRSA (ATCC 33591) and Streptococcous pneumoniae (ATCC 46919). H. influenzae was grown in Haemophilus Test Medium and S. pneumoniae was grown in cation adjusted Muller-Hinton Broth II with 5% lysed horse blood. All other microorganisms were grown in cation adjusted Muller-Hinton Broth II.” for “respectively.”
as §1

Measured: MIC

O=[N+]([O-])c1ccc(CCc2cc(CCc3ccc([N+](=O)[O-])cc3)cc(CCc3ccc([N+](=O)[O-])cc3)c2)cc1 [Compound 8 (TSB036)]
>32.0 µg/mL: [1] | [2] | [3] | [4] | [5] | [6] | [7]
